From patent publication US20060069132A1, “Azolecarboxamide herbicides” (priority 2004, published 2006)

Experiments:
barnyardgrass [1] = assay: Test B pre-/postemergence herbicide test; type: in vivo, Echinochloa crus-galli; conditions: for Plant response rating (0 to 100 scale), Barnyardgrass: 0 is no effect
Procedure, shortened: (§1)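 Plants compared with untreated controls 13–15 days post-treatment and given a visual 0–100 injury score. Applications: preemergence to seeds; postemergence at 1- to 4-leaf (2–18 cm); paddy species flooded, 2-leaf stage. Vehicle non-phytotoxic, surfactant included.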

Surinam grass = assay: Test B pre-/postemergence herbicide test; type: in vivo, Urochloa decumbens; conditions: for Plant response rating (0 to 100 scale), Surinam Grass: 0 is no effect
Procedure, shortened: (§2)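 Greenhouse pot assay with simultaneous preemergence (treated seed) and postemergence (2–18 cm seedlings) applications of surfactant-containing, non-phytotoxic solvent formulations. Response scored visually 13–15 days later on a 0–100 scale, 100 meaning complete control.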

cocklebur = assay: Test B pre-/postemergence herbicide test; type: in vivo, Xanthium strumarium; conditions: for Plant response rating (0 to 100 scale), Cocklebur: 0 is no effect
Procedure, shortened: as §1

corn = assay: Test B pre-/postemergence herbicide test; type: in vivo, Zea mays; conditions: for Plant response rating (0 to 100 scale), Corn: 0 is no effect
Procedure, shortened: as §2

large crabgrass = assay: Test B pre-/postemergence herbicide test; type: in vivo, Digitaria sanguinalis; conditions: for Plant response rating (0 to 100 scale), Crabgrass, Large: 0 is no effect, preemergence
Procedure, shortened: as §2

giant foxtail = assay: Test B pre-/postemergence herbicide test; type: in vivo, Setaria faberi; conditions: for Plant response rating (0 to 100 scale), Foxtail, Giant: 0 is no effect
Procedure, shortened: as §2

lambsquarters = assay: Test B pre-/postemergence herbicide test; type: in vivo, Chenopodium album; conditions: for Plant response rating (0 to 100 scale), Lambsquarters: 0 is no effect
Procedure, shortened: as §2

morningglory = assay: Test B pre-/postemergence herbicide test; type: in vivo, Ipomoea coccinea; conditions: for Plant response rating (0 to 100 scale), Morningglory: 0 is no effect
Procedure, shortened: as §1

pigweed = assay: Test B pre-/postemergence herbicide test; type: in vivo, Amaranthus retroflexus; conditions: for Plant response rating (0 to 100 scale), Pigweed: 0 is no effect
Procedure, shortened: as §2

velvetleaf = assay: Test B pre-/postemergence herbicide test; type: in vivo, Abutilon theophrasti; conditions: for Plant response rating (0 to 100 scale), Velvetleaf: 0 is no effect, preemergence
Procedure, shortened: as §2

blackgrass = assay: Test B postemergence herbicide test; type: in vivo, Alopecurus myosuroides
Procedure, shortened: (§3)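 Formulated test chemicals went onto postemergence plants measuring 2 to 18 cm, at one to four leaves. For the paddy assay, species had reached two leaves. Scoring took place 13–15 days later by eye, relative to untreated plants, using 0 for no effect up to 100 for full control.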

wheat = assay: Test B postemergence herbicide test; type: in vivo, Triticum aestivum; design: key to Wheat plant response rating: 0 = no effect, 100 = complete control
Procedure, shortened: (§4)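 Treated at 2-leaf (paddy) or 1–4-leaf, 2–18 cm (postemergence); greenhouse 13–15 d; visual score vs control, 0 none to 100 complete control; dash = not tested.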

wild oat = assay: Test B postemergence herbicide test; type: in vivo, Avena fatua
Procedure, shortened: as §4

rice [2] = assay: Test B flooded paddy test; type: in vivo, Oryza sativa; conditions: 1000 g ai/ha, scale 0 to 100 (0 no effect, 100 complete control)
Procedure, shortened: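 Greenhouse test; postemergence application to plants at 1–4 leaves (2–18 cm); paddy species at 2 leaves; evaluated visually vs controls at 13–15 days; scale 0–100 (100 = complete control).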

[3] = system: small flower umbrella sedge; assay: Test B flooded paddy test; type: in vivo, Cyperus difformis; conditions: 1000 g ai/ha, scale 0 to 100 (0 no effect, 100 complete control)
Procedure, shortened: as §3

ducksalad [4] = assay: Test B flooded paddy test; type: in vivo, Heteranthera limosa; conditions: 1000 g ai/ha, scale 0 to 100 (0 no effect, 100 complete control)
Procedure, shortened: as §3

barnyardgrass [5] = assay: Test B flooded paddy test; type: in vivo, Echinochloa crus-galli; conditions: 1000 g ai/ha, scale 0 to 100 (0 no effect, 100 complete control)
Procedure, shortened: as §3

rice [6] = assay: Test C flooded paddy test; type: in vivo, Oryza sativa; conditions: for Plant response rating, Rice: 500 g ai/ha, visual rating after 12 to 14 days
Procedure, shortened: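 Injury scored visually against controls on a 0 (no effect) to 100 (complete control) scale, 12 to 14 days after treatment in greenhouse. Flooded paddy plants treated at 2-leaf stage; postemergence plants at 1- to 4-leaf stage, 2 to 18 cm tall.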

[7] = system: smallflower umbrella sedge; assay: Test C flooded paddy test; type: in vivo, Cyperus difformis; conditions: for Plant response rating, Sedge, Umbrella: 500 g ai/ha, visual rating after 12 to 14 days
ducksalad [8] = assay: Test C flooded paddy test; type: in vivo, Heteranthera limosa; conditions: for Plant response rating, Ducksalad: 500 g ai/ha, visual rating after 12 to 14 days
barnyardgrass [9] = assay: Test C flooded paddy test; type: in vivo, Echinochloa crus-galli; conditions: for Plant response rating, Barnyardgrass: 500 g ai/ha, visual rating after 12 to 14 days
Procedure, shortened: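 After a postemergence application at 1 to 4 leaves (plants 2–18 cm high), or at 2 leaves for barnyardgrass in flooded paddy, plants stayed in the greenhouse for 12 to 14 days. Damage was then judged visually relative to control plants, with 100 indicating complete control.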

[10] = 125 g ai/ha, 100 is complete control, preemergence
[11] = 125 g ai/ha, visual rating, scale 0 (no effect) to 100 (complete control), postemergence
[12] = 500 g ai/ha, visual rating, 0 = no effect, 100 = complete control, preemergence
[13] = postemergence, 500 g ai/ha, scale 0 to 100, 0 is no effect, 100 is complete control
[14] = 125 g ai/ha, 100 is complete control
[15] = 125 g ai/ha, scale 0 to 100 (0 no effect, 100 complete control)
[16] = 250 g ai/ha, scale of 0 to 100, 0 is no effect, 100 is complete control
[17] = scale 0 to 100 (0 no effect, 100 complete control)
[18] = 62 g ai/ha, scale 0 to 100 (0 no effect, 100 complete control)
[19] = Postemergence, 500 g ai/ha, scale 0 (no effect) to 100 (complete control)

Cc1nn(C(C)(C)C)cc1C(=O)Nc1cc(C(=O)N(C)C)ccc1F [Compound 344]
Plant response rating (0 to 100 scale), Barnyardgrass (barnyardgrass [1]; [10]): 20
Barnyardgrass plant response rating (barnyardgrass [1]; [11]): 0
Plant response rating, Barnyardgrass (barnyardgrass [1]; [12]): 70
Barnyardgrass plant response rating (barnyardgrass [1]; [13]): 10
Plant response rating (0 to 100 scale), Surinam Grass (Surinam grass; [10]): 30
Surinam Grass plant response rating (Surinam grass; [11]): 0
Plant response rating, Surinam Grass (Surinam grass; [12]): 100
Surinam Grass plant response rating (Surinam grass; [13]): 10
Plant response rating (0 to 100 scale), Cocklebur (cocklebur; [10]): 20
Cocklebur plant response rating (cocklebur; [11]): 0
Plant response rating, Cocklebur (cocklebur; [12]): 70
Cocklebur plant response rating (cocklebur; [13]): 10
Plant response rating (0 to 100 scale), Corn (corn; [10]): 10
Corn plant response rating (corn; [11]): 10
Plant response rating, Corn (corn; [12]): 90
Corn plant response rating (corn; [13]): 10
Plant response rating (0 to 100 scale), Crabgrass, Large (large crabgrass; [14]): 60
Crabgrass, Large plant response rating (large crabgrass; [11]): 0
Crabgrass, Large plant response rating (large crabgrass; [13]): 10
Plant response rating (0 to 100 scale), Foxtail, Giant (giant foxtail; [10]): 10
Foxtail, Giant plant response rating (giant foxtail; [11]): 10
Plant response rating, Foxtail, Giant (giant foxtail; [12]): 60
Foxtail, Giant plant response rating (giant foxtail; [13]): 10
Plant response rating (0 to 100 scale), Lambsquarters (lambsquarters; [10]): 90
Lambsquarters plant response rating (lambsquarters; [11]): 20
Plant response rating, Lambsquarters (lambsquarters; [12]): 100
Lambsquarters plant response rating (lambsquarters; [13]): 40
Plant response rating (0 to 100 scale), Morningglory (morningglory; [10]): 10
Morningglory plant response rating (morningglory; [11]): 10
Plant response rating, Morningglory (morningglory; [12]): 80
Morningglory plant response rating (morningglory; [13]): 50
Plant response rating (0 to 100 scale), Pigweed (pigweed; [10]): 90
Pigweed plant response rating (pigweed; [11]): 20
Plant response rating, Pigweed (pigweed; [12]): 90
Pigweed plant response rating (pigweed; [13]): 50
Plant response rating (0 to 100 scale), Velvetleaf (velvetleaf; [14]): 40
Velvetleaf plant response rating (velvetleaf; [11]): 20
Velvetleaf plant response rating (velvetleaf; [13]): 30
Blackgrass plant response rating (blackgrass; [11]): 0
Blackgrass plant response rating (blackgrass; [13]): 0
Wheat plant response rating (wheat; [11]): 0
Wheat plant response rating (wheat; [13]): 10
Oat, Wild plant response rating (wild oat; [11]): 0
Oat, Wild plant response rating (wild oat; [13]): 0
Rice plant response rating (rice [2]): 70
Sedge, Umbrella plant response rating [3]: 80
Ducksalad plant response rating (ducksalad [4]): 80
Barnyardgrass plant response rating (barnyardgrass [5]): 60
Rice plant response rating (rice [6]; 62 g ai/ha, scale 0 to 100): 0
Rice plant response rating (rice [6]; [15]): 0
Rice plant response rating (rice [6]; [16]): 0
Plant response rating, Rice (rice [6]; [17]): 15
Sedge, Umbrella plant response rating ([7]; 62 g ai/ha, scale 0 to 100): 0
Sedge, Umbrella plant response rating [7, 15]: 75
Sedge, Umbrella plant response rating [7, 16]: 75
Plant response rating, Sedge, Umbrella [7, 17]: 85
Ducksalad plant response rating (ducksalad [8]; 62 g ai/ha, scale 0 to 100): 0
Ducksalad plant response rating (ducksalad [8]; [15]): 0
Ducksalad plant response rating (ducksalad [8]; [16]): 20
Plant response rating, Ducksalad (ducksalad [8]; [17]): 45
Barnyardgrass plant response rating (barnyardgrass [9]; [18]): 0
Barnyardgrass plant response rating (barnyardgrass [9]; [15]): 0
Barnyardgrass plant response rating (barnyardgrass [9]; [16]): 0
Plant response rating, Barnyardgrass (barnyardgrass [9]; [17]): 0

CCNC(=O)c1cccc(NC(=O)c2nn(C(C)C)nc2C)c1 [Compound 405]
Plant response rating (0 to 100 scale), Barnyardgrass (barnyardgrass [1]; [10]): 10
Barnyardgrass plant response rating (barnyardgrass [1]; [11]): 10
Barnyardgrass plant response rating (barnyardgrass [1]; [19]): 10
Plant response rating (0 to 100 scale), Surinam Grass (Surinam grass; [10]): 0
Surinam Grass plant response rating (Surinam grass; [11]): 0
Surinam Grass plant response rating (Surinam grass; [19]): 10
Plant response rating (0 to 100 scale), Cocklebur (cocklebur; [10]): 0
Cocklebur plant response rating (cocklebur; [11]): 10
Cocklebur plant response rating (cocklebur; [19]): 20
Plant response rating (0 to 100 scale), Corn (corn; [10]): 0
Corn plant response rating (corn; [11]): 10
Corn plant response rating (corn; [19]): 10
Plant response rating (0 to 100 scale), Crabgrass, Large (large crabgrass; [14]): 30
Crabgrass, Large plant response rating (large crabgrass; [11]): 10
Crabgrass, Large plant response rating (large crabgrass; [19]): 20
Plant response rating (0 to 100 scale), Foxtail, Giant (giant foxtail; [10]): 0
Foxtail, Giant plant response rating (giant foxtail; [11]): 0
Foxtail, Giant plant response rating (giant foxtail; [19]): 20
Plant response rating (0 to 100 scale), Lambsquarters (lambsquarters; [10]): 70
Lambsquarters plant response rating (lambsquarters; [11]): 50
Lambsquarters plant response rating (lambsquarters; [19]): 70
Plant response rating (0 to 100 scale), Morningglory (morningglory; [10]): 30
Morningglory plant response rating (morningglory; [11]): 20
Morningglory plant response rating (morningglory; [19]): 60
Plant response rating (0 to 100 scale), Pigweed (pigweed; [10]): 10
Pigweed plant response rating (pigweed; [11]): 30
Pigweed plant response rating (pigweed; [19]): 50
Plant response rating (0 to 100 scale), Velvetleaf (velvetleaf; [14]): 0
Velvetleaf plant response rating (velvetleaf; [11]): 10
Velvetleaf plant response rating (velvetleaf; [19]): 30
Blackgrass plant response rating (blackgrass; [11]): 0
Blackgrass plant response rating (blackgrass; [19]): 10
Wheat plant response rating (wheat; [11]): 0
Wheat plant response rating (wheat; 500 g ai/ha, scale 0 to 100, 0 no effect, 100 complete control, preemergence): 20
Wheat plant response rating (wheat; [19]): 0
Oat, Wild plant response rating (wild oat; [11]): 0
Oat, Wild plant response rating (wild oat; [19]): 10
Rice plant response rating (rice [2]): 50
Sedge, Umbrella plant response rating [3]: 90
Ducksalad plant response rating (ducksalad [4]): 80
Barnyardgrass plant response rating (barnyardgrass [5]): 40
Rice plant response rating (rice [6]; 62 g ai/ha, scale 0 to 100): 0
Rice plant response rating (rice [6]; [15]): 0
Rice plant response rating (rice [6]; [16]): 0
Plant response rating, Rice (rice [6]; [17]): 20
Sedge, Umbrella plant response rating ([7]; 62 g ai/ha, scale 0 to 100): 40
Sedge, Umbrella plant response rating [7, 15]: 50
Sedge, Umbrella plant response rating [7, 16]: 70
Plant response rating, Sedge, Umbrella [7, 17]: 70
Ducksalad plant response rating (ducksalad [8]; 62 g ai/ha, scale 0 to 100): 0
Ducksalad plant response rating (ducksalad [8]; [15]): 0
Ducksalad plant response rating (ducksalad [8]; [16]): 20
Plant response rating, Ducksalad (ducksalad [8]; [17]): 30
Barnyardgrass plant response rating (barnyardgrass [9]; [18]): 0
Barnyardgrass plant response rating (barnyardgrass [9]; [15]): 0
Barnyardgrass plant response rating (barnyardgrass [9]; [16]): 0
Plant response rating, Barnyardgrass (barnyardgrass [9]; [17]): 20
